Tested on: Hs578T complex spheroid growth, percent test/control
Assay: Anticancer human tumor Hs578T cell line growth inhibition [AhR];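 note: luminescent viability signal as a proxy for spheroid growth; spheroids exposed to agents for one week after three days of growth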
Details: for IC50: curve of first compound; for viability, T/C: stronger effect = lower value
Method in brief: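 Complex tumor spheroids co-cultured with HUVEC and human MSC stroma; AhR antagonists tested in combination with standard-of-care and investigational agents. Top concentration at or near clinical Cmax (else 10 microM), half-log dilutions; growth expressed as percent test/control.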

[1] = second compound 0.1 µM, first compound 0.0316 µM
[2] = second compound 0.1 µM, first compound 0.1 µM
[3] = second compound 0.1 µM, first compound 0.316 µM
[4] = second compound 0.1 µM, first compound 1 µM
[5] = second compound 0.1 µM, first compound 3.16 µM
[6] = second compound 0.1 µM, first compound 10 µM
[7] = second compound 0.316 µM, first compound 0.0316 µM
[8] = second compound 0.316 µM, first compound 0.1 µM
[9] = second compound 0.316 µM, first compound 0.316 µM
[10] = second compound 0.316 µM, first compound 1 µM
[11] = second compound 0.316 µM, first compound 3.16 µM
[12] = second compound 0.316 µM, first compound 10 µM
[13] = second compound 1 µM, first compound 0.0316 µM
[14] = second compound 1 µM, first compound 0.1 µM
[15] = second compound 1 µM, first compound 0.316 µM
[16] = second compound 1 µM, first compound 1 µM
[17] = second compound 1 µM, first compound 3.16 µM
[18] = second compound 1 µM, first compound 10 µM
[19] = second compound 3.16 µM, first compound 0.0316 µM
[20] = second compound 3.16 µM, first compound 0.1 µM
[21] = second compound 3.16 µM, first compound 0.316 µM
[22] = second compound 3.16 µM, first compound 1 µM
[23] = second compound 3.16 µM, first compound 3.16 µM
[24] = second compound 3.16 µM, first compound 10 µM
[25] = second compound 10 µM, first compound 0.0316 µM
[26] = second compound 10 µM, first compound 0.1 µM
[27] = second compound 10 µM, first compound 0.316 µM
[28] = second compound 10 µM, first compound 1 µM
[29] = second compound 10 µM, first compound 3.16 µM
[30] = second compound 10 µM, first compound 10 µM

COc1ccc([C@@H](O)c2cc(-c3ncnc4cc(N5CCOCC5)ccc34)c(F)cc2Cl)nn1 + CC(CO)NC(=O)c1cc(-c2ccc(Cl)cc2)nn(-c2cnn(C)c2)c1=O
IC50 (second compound 0.1 µM): 5550 nM | IC50 (second compound 0.316 µM): 4860 nM | IC50 (second compound 1 µM): 6020 nM | IC50 (second compound 3.16 µM): 4180 nM | IC50 (second compound 10 µM): 4860 nM | viability, T/C [1]: 109% | viability, T/C [2]: 111% | viability, T/C [3]: 105% | viability, T/C [4]: 89.2% | viability, T/C [5]: 64.2% | viability, T/C [6]: 35.7% | viability, T/C [7]: 113% | viability, T/C [8]: 115% | viability, T/C [9]: 104% | viability, T/C [10]: 87.2% | viability, T/C [11]: 57.8% | viability, T/C [12]: 36.7% | viability, T/C [13]: 117% | viability, T/C [14]: 112% | viability, T/C [15]: 102% | viability, T/C [16]: 85.8% | viability, T/C [17]: 65.1% | viability, T/C [18]: 38.3% | viability, T/C [19]: 111% | viability, T/C [20]: 106% | viability, T/C [21]: 102% | viability, T/C [22]: 84% | viability, T/C [23]: 52.9% | viability, T/C [24]: 38.7% | viability, T/C [25]: 95.6% | viability, T/C [26]: 97.5% | viability, T/C [27]: 99.9% | viability, T/C [28]: 82.5% | viability, T/C [29]: 56.9% | viability, T/C [30]: 39.5%

COc1cccc2c1C(=O)c1c(O)c3c(c(O)c1C2=O)CC(O)(C(=O)CO)CC3OC1CC(N)C(O)C(C)O1 (stereo not given) + Cc1ccccc1N=Nc1ccc(NC(=O)c2ccnn2C)c(C)c1
IC50 (second compound 0.1 µM): 240 nM | IC50 (second compound 0.316 µM): 279 nM | IC50 (second compound 1 µM): 373 nM | IC50 (second compound 3.16 µM): 353 nM | IC50 (second compound 10 µM): 368 nM | viability, T/C [1]: 89.8% | viability, T/C [2]: 72.5% | viability, T/C [3]: 44.7% | viability, T/C [4]: 10% | viability, T/C [5]: 2.16% | viability, T/C [6]: 2.24% | viability, T/C [7]: 67.9% | viability, T/C [8]: 64.2% | viability, T/C [9]: 48.3% | viability, T/C [10]: 9.72% | viability, T/C [11]: 1.94% | viability, T/C [12]: 2.15% | viability, T/C [13]: 80.4% | viability, T/C [14]: 75% | viability, T/C [15]: 56.3% | viability, T/C [16]: 14.4% | viability, T/C [17]: 1.79% | viability, T/C [18]: 2.15% | viability, T/C [19]: 68.7% | viability, T/C [20]: 63.2% | viability, T/C [21]: 54.5% | viability, T/C [22]: 10.2% | viability, T/C [23]: 1.55% | viability, T/C [24]: 1.85% | viability, T/C [25]: 65.2% | viability, T/C [26]: 64.4% | viability, T/C [27]: 56.6% | viability, T/C [28]: 6.88% | viability, T/C [29]: 1.17% | viability, T/C [30]: 1.93%

Nc1ncn(C2CC(O)C(CO)O2)c(=O)n1 (stereo not given) + Cc1ccccc1N=Nc1ccc(NC(=O)c2ccnn2C)c(C)c1
IC50 (second compound 0.1 µM): > 1000 nM | IC50 (second compound 0.316 µM): > 1000 nM | IC50 (second compound 1 µM): > 1000 nM | IC50 (second compound 3.16 µM): > 1000 nM | IC50 (second compound 10 µM): > 1000 nM | viability, T/C (second compound 0.1 µM, first compound 0.00316 µM): 103% | viability, T/C (second compound 0.1 µM, first compound 0.01 µM): 109% | viability, T/C [1]: 97.2% | viability, T/C [2]: 98% | viability, T/C [3]: 99.2% | viability, T/C [4]: 90% | viability, T/C (second compound 0.316 µM, first compound 0.00316 µM): 97.5% | viability, T/C (second compound 0.316 µM, first compound 0.01 µM): 97.2% | viability, T/C [7]: 96.8% | viability, T/C [8]: 98.9% | viability, T/C [9]: 85.8% | viability, T/C [10]: 81.6% | viability, T/C (second compound 1 µM, first compound 0.00316 µM): 95.4% | viability, T/C (second compound 1 µM, first compound 0.01 µM): 92% | viability, T/C [13]: 106% | viability, T/C [14]: 91.8% | viability, T/C [15]: 86.2% | viability, T/C [16]: 84.9% | viability, T/C (second compound 3.16 µM, first compound 0.00316 µM): 83.3% | viability, T/C (second compound 3.16 µM, first compound 0.01 µM): 87.2% | viability, T/C [19]: 85.9% | viability, T/C [20]: 90.8% | viability, T/C [21]: 78.5% | viability, T/C [22]: 79.8% | viability, T/C (second compound 10 µM, first compound 0.00316 µM): 63% | viability, T/C (second compound 10 µM, first compound 0.01 µM): 70.5% | viability, T/C [25]: 60.9% | viability, T/C [26]: 66% | viability, T/C [27]: 63.4% | viability, T/C [28]: 68%

From PubChem BioAssay AID1919010 (Molecular Pharmacology Branch, DTP, NCI, 2023)
